ChEMBL document CHEMBL3763125, “Discovery of novel phenoxazinone derivatives as DKK1/LRP6 interaction inhibitors: Synthesis, biological evaluation and structure-activity relationships” (Bioorg Med Chem, 2016)
pIC50: −log10 of the molar value. Calls of active or inactive are those of the source. The rule behind the calls is not given here.

Key:
Format in all cases: cell-based
[1] = molecular target: T1, Low-density lipoprotein receptor-related protein 6 (Homo sapiens, UniProt O75581); test: Binding affinity to human LRP6 expressed in HEK293 cells assessed as inhibition of DKK1/LRP6 interaction using compound pre-treated DKK1 conditioned media after 2 hrs by fluorescence microscopic analysis
T1 sequence (O75581 whole entry): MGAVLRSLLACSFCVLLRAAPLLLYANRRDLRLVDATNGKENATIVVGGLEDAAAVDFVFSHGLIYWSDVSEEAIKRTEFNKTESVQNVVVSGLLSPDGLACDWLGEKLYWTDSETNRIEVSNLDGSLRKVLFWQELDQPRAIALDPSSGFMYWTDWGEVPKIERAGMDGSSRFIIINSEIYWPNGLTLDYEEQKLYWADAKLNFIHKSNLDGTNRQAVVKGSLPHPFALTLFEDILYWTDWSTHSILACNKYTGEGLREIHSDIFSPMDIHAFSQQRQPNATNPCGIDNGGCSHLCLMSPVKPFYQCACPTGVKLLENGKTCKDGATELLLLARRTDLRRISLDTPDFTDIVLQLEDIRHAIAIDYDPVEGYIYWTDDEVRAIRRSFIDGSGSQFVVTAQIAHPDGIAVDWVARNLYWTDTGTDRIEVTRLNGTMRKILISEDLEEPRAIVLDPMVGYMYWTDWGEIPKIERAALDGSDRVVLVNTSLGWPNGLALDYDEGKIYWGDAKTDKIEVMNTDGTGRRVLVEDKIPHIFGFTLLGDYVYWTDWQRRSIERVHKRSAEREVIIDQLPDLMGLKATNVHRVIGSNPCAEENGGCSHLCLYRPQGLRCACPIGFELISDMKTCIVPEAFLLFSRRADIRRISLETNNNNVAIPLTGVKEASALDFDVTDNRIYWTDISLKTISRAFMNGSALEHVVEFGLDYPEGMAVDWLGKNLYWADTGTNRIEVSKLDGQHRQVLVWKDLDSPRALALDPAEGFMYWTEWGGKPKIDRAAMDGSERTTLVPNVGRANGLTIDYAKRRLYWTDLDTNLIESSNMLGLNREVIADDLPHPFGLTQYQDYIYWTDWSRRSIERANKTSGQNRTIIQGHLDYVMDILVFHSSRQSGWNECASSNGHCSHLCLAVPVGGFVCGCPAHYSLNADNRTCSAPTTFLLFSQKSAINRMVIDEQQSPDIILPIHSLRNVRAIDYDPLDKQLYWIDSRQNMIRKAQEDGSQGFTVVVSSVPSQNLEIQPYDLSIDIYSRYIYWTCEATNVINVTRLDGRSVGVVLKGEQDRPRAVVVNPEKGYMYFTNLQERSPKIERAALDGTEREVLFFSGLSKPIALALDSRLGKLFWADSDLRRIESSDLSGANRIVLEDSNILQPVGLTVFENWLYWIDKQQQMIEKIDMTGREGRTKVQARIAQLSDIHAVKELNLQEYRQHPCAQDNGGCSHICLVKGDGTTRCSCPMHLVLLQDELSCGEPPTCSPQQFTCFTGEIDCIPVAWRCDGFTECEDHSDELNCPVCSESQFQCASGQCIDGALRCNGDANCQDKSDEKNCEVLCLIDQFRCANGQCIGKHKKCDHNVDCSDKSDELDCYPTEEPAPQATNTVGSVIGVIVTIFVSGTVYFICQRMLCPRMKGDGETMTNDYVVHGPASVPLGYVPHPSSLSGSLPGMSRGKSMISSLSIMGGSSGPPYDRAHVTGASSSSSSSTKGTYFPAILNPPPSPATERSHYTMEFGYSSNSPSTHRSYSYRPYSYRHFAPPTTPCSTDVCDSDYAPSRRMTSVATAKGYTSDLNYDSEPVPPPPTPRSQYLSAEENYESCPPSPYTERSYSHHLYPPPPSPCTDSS

[2] = tested on: SH-SY5Y; test: Cytotoxicity against human SH-SY5Y cells at 10 to 100 uM after 24 hrs by MTT assay
[3] = molecular target: T1, Low-density lipoprotein receptor-related protein 6; test: Binding affinity to LRP6 in human SH-SY5Y cells assessed as DKK1/LRP6 interaction-mediated increase in beta-catenin level at 10 uM incubated for 1 hr using compound pre-treated DKK1 conditioned media by Western blot analysis
[4] = molecular target: T1, Low-density lipoprotein receptor-related protein 6; test: Binding affinity to LRP6 in human SH-SY5Y cells assessed as inhibition of DKK1/LRP6 interaction-mediated tau phosphorylation at serine 396 at 10 uM incubated for 1 hr using compound pre-treated DKK1 conditioned media by Western blot analysis

`COC(=O)c1c2nc3ccc(N(C)C)cc3oc-2c(O)c(=O)c1Nc1ccc(C)cc1` was tested, and the pIC50 [1] was 5.42, the Activity [2] was “Non-toxic” and the inhibition [3] was “Active”.

For `COC(=O)c1c2nc3ccc(N(C)C)cc3oc-2c(O)c(=O)c1NCc1ccc(OC)cc1`, the pIC50 [1] was 5.36, the Activity [2] was “Non-toxic” and the inhibition [3] was “Active”.

With `COC(=O)c1c2nc3ccc(N(C)C)cc3oc-2c(O)c(=O)c1NC1CCCC1` the pIC50 [1] was 5.34, the Activity [2] was “Non-toxic” and the inhibition [3] was “Active”.

With `COC(=O)c1c2nc3ccc(N(C)C)cc3oc-2c(O)c(=O)c1Nc1ccccc1` the pIC50 [1] was 5.21, the Activity [2] was “Non-toxic” and the inhibition [3] was “Active”.

In the case of `COC(=O)c1c2nc3ccc(N(C)C)cc3oc-2c(O)c(=O)c1Nc1ccc(Cl)c(Cl)c1`, the pIC50 [1] was 5.31, the Activity [2] was “Non-toxic” and the inhibition [3] was “Active”. The inhibition [4] was “Active”.

For `CCCCOC(=O)c1c2nc3ccc(N(C)C)cc3oc-2c(O)c(=O)c1NCc1ccc(OC)cc1`, the pIC50 [1] was 5.47, the Activity [2] was “Non-toxic” and the inhibition [3] was “Active”.

`COC(=O)c1c2nc3ccc(N(C)C)cc3oc-2c(O)c(=O)c1Nc1ccc(OC)cc1` was tested, and the pIC50 [1] was 5.33, the Activity [2] was “Non-toxic” and the inhibition [3] was “Active”.

`COC(=O)c1c2nc3ccc(N(C)C)cc3oc-2c(O)c(=O)c1NC1CCCCC1` was tested, and the pIC50 [1] was 5.39, the Activity [2] was “Non-toxic” and the inhibition [3] was “Active”.

With `COC(=O)c1c2nc3ccc(N(C)C)cc3oc-2c(O)c(=O)c1N1CCCCC1` the pIC50 [1] was 5.26, the Activity [2] was “Non-toxic” and the inhibition [3] was “Active”. The inhibition [4] was “Active”.

`COC(=O)c1c2nc3ccc(N(C)C)cc3oc-2c(O)c(=O)c1N` was tested, and the pIC50 [1] was 5.28, the Activity [2] was “Non-toxic” and the inhibition [3] was “Active”. For the same compound, the inhibition [4] was “Active”.

For `COC(=O)c1c2nc3ccc(N(C)C)cc3oc-2c(O)c(=O)c1N1CCOCC1`, the pIC50 [1] was 5.43, the Activity [2] was “Non-toxic” and the inhibition [3] was “Active”.
